Holding throughout (assay type): cell-based
The subject of one experiment is Marburg virus (MARV). The experiment can be described thus: organism not typed. The following applies: Vero, 72 h, read-out: Percent viral inhibition MARV.
The subject of experiment [1] is Chikungunya virus (CHIKV). The experiment in a line: microbe, parasite or virus in culture. The following applies: Chikungunya virus, Vero, 48 h, read-out: Percent viral inhibition CHKV.
Another experiment relates to dengue virus (DENV). The experiment can be described thus: microbe, parasite or virus in culture. The following applies: Dengue virus, Vero, 120 h, read-out: Percent viral inhibition DENY.

Usually inhibition stands for the share of the control response that was lost under treatment. Consider `NC1(CO)CCN(c2ncc(Oc3cc(CN4CCC(CC(=O)O)CC4)cc(-c4cc(Cl)cc(Cl)c4)n3)cn2)CC1` [Example 165, 2-(1-((2-((2-(4-amino-4-(hydroxymethyl)piperidin-1-yl)pyrimidin-5-yl)oxy)-6-(3,5-dichlorophenyl)pyridin-4-yl)methyl)piperidin-4-yl) acetic acid], for which the results for the inhibition at 1 µM (with Marburg virus (MARV); in experiment [1]; with dengue virus (DENV)) were 50.9%, 18.6% and 36.9%, respectively.
The like results for `C[C@]1(O)C[C@@H](N2CCN(c3ncc(Oc4cc(CN5CCC(CC(=O)O)CC5)cc(-c5cc(Cl)cc(Cl)c5)n4)cn3)CC2)C1` [Example 24, 2-(1-((2-(3,5-dichlorophenyl)-6-((2-(4-((1s,3s)-3-hydroxy-3-methylcyclobutyl)piperazin-1-yl)pyrimidin-5-yl)oxy)pyridin-4-yl)methyl)piperidin-4-yl)acetic acid] were, in that order, 63.1%, 34.6% and 25.8%.
The like results for `CS(=O)(=O)N[C@H]1[C@@H]2CCN(Cc3cc(Oc4cnc(N5CCN(CCC(=O)O)CC5)nc4)nc(-c4cc(Cl)cc(Cl)c4)c3)CC[C@@H]21` [Example 80, 3-(4-(5-((6-(3,5-dichlorophenyl)-4-(((1R,7S,8r)-8-(methylsulfonamido)-4-azabicyclo[5.1.0]octan-4-yl)methyl)pyridin-2-yl)oxy)pyrimidin-2-yl)piperazin-1-yl)propanoic acid] were, in that order, 64.6%, 25% and 0%.
The like results for `CNC(=O)NCC1CCN(Cc2cc(Oc3cnc(N4CCN(CCC(C)[S+](C)[O-])CC4)nc3)nc(-c3cc(Cl)cc(Cl)c3)c2)CC1` (stereo not drawn) [Example 17, 1-((1-((2-(3,5-chlorophenyl)-6-((2-(4-(3-(methylsulfinyl)butyl)piperazin-1-yl)pyrimidin-5-yl)oxy)pyridin-4-yl)methyl)piperidin-4-yl)methyl)-3-methylurea] were, in that order, 52.9%, 7.16% and 57.4%.
For `CN(C)C1CCN(c2ncc(Oc3cc(CN4CCC(CC(=O)O)CC4)cc(-c4cc(Cl)cc(Cl)c4)n3)cn2)CC1` [Example 227, 2-(1-((2-(3,5-dichlorophenyl)-6-((2-(4-(dimethylamino)piperidin-1-yl)pyrimidin-5-yl)oxy)pyridin-4-yl)methyl)piperidin-4-yl)acetic acid], the inhibition at 1 µM was 54.5% with Marburg virus (MARV), 40.5% in experiment [1] and 54% with dengue virus (DENV).
The like results for `C[C@@H](CC1CCN(Cc2cc(Oc3ccc(N4CCN(C)CC4)nn3)nc(-c3cc(Cl)cc(Cl)c3)c2)CC1)C(=O)O` [Example 365, (S)-3-(1-((2-(3,5-dichlorophenyl)-6-((6-(4-methylpiperazin-1-yl)pyridazin-3-yl)oxy)pyridin-4-yl)methyl)piperidin-4-yl)-2-methylpropanoic acid] were, in that order, 17.4%, 0% and 32.4%.
The like results for `CN1CCN(c2cnc(Oc3cc(CN4CCC(OC5(C(=O)O)CC5)CC4)cc(-c4cc(Cl)cc(Cl)c4)n3)cn2)CC1` [Example 353, 1-((1-((2-(3,5-dichlorophenyl)-6-((5-(4-methylpiperazin-1-yl)pyrazin-2-yl)oxy)pyridin-4-yl)methyl)piperidin-4-yl)oxy)cyclopropanecarboxylic acid] were, in that order, 35.4%, 16.6% and 51.3%.
For the compound `CN1CCN(c2ncc(Oc3cc(CN4CC[C@@H]5[C@H](CC4)[C@H]5CC(=O)O)cc(-c4cc(Cl)cc(Cl)c4)n3)cn2)CC1` [Example 224, 2-((1R,7S,8r)-4-((2-(3,5-dichloro-phenyl)-6-((2-(4-methylpiperazin-1-yl)pyrimidin-5-yl)oxy)pyridin-4-yl)methyl)-4-azabicyclo[5.1.0]octan-8-yl)acetic acid], the inhibition at 1 µM in the experiment on Marburg virus (MARV) worked out at 52.3%; in experiment [1], 33.1%; in the experiment on dengue virus (DENV) it was 72%.
The matching figures for `CC(=O)NCC1CCN(Cc2cc(Oc3cnc(N4CCN(CC(C)C(=O)O)CC4)nc3)nc(-c3cc(Cl)cc(Cl)c3)c2)CC1` (stereo not drawn) [Example 283, 3-(4-(5-((4-((4-(acetamidomethyl)piperidin-1-yl)methyl)-6-(3,5-dichlorophenyl)pyridin-2-yl)oxy)pyrimidin-2-yl)piperazin-1-yl)-2-methylpropanoic acid]: 49.6%, 29.8% and 43.8%.
With `CN1CCN(c2ccc(Oc3cc(CN4CC[C@@H]5[C@H](CC4)[C@H]5C(=O)O)cc(-c4cc(Cl)cc(Cl)c4)n3)nn2)CC1` [Example 361, (1R,7S,8r)-4-((2-(3,5-dichlorophenyl)-6-((6-(4-methylpiperazin-1-yl)pyridazin-3-yl)oxy)pyridin-4-yl)methyl)-4-azabicyclo[5.1.0]octane-8-carboxylic acid], the inhibition at 1 µM in the experiment with Marburg virus (MARV) was found to be 42%; in experiment [1], 26.6%; in the experiment with dengue virus (DENV), 12.1%.
As to `CNC(=O)OCC1CCN(Cc2cc(Oc3cnc(N4CCN(C)CC4)nc3)nc(-c3cc(Cl)cc(Cl)c3)c2)CC1` [Example 66, (1-((2-(3,5-dichlorophenyl)-6-((2-(4-methylpiperazin-1-yl)pyrimidin-5-yl)oxy)pyridin-4-yl)methyl)piperidin-4-yl)methylmethylcarbamate], the inhibition at 1 µM with Marburg virus (MARV) was found to be 60.7%; in experiment [1], 7.64%; in the experiment on dengue virus (DENV) it was 57.9%.
For `O=C(O)CC1CCN(Cc2cc(Oc3ccc(N4CCN(CCO)CC4)nc3)nc(-c3cc(Cl)cc(Cl)c3)c2)CC1` [Example 300, 2-(1-((2-(3,5-dichlorophenyl)-6-((6-(4-(2-hydroxyethyl)piperazin-1-yl)pyridin-3-yl)oxy)pyridin-4-yl)methyl)piperidin-4-yl)acetic acid], the inhibition at 1 µM is 45% in the experiment with Marburg virus (MARV), 18.2% in experiment [1] and 0% in the experiment with dengue virus (DENV).
The like results for `CC(=O)NCC1CCN(Cc2cc(Oc3ccc(N4CCN(CCN(C)S(C)(=O)=O)CC4)nc3)nc(-c3cc(Cl)cc(Cl)c3)c2)CC1` [Example 32, N-((1-((2-(3,5-dichlorophenyl)-6-((6-(4-(2-(N-methylmethylsulfonamido)ethyl)piperazin-1-yl)pyridin-3-yl)oxy)pyridin-4-yl)methyl)piperidin-4-yl)methyl)acetamide] were, in that order, 63.5%, 49.4% and 34.2%.
The matching figures for `CC(=O)NCC1CCN(Cc2cc(Oc3ccc(N4CCN(CC(C)C(=O)O)CC4)nn3)nc(-c3cc(Cl)cc(Cl)c3)c2)CC1` (stereo not drawn) [Example 363, 3-(4-(6-((4-((4-(acetamidomethyl)piperidin-1-yl)methyl)-6-(3,5-dichlorophenyl)pyridin-2-yl)oxy)pyridazin-3-yl)piperazin-1-yl)-2-methylpropanoic acid]: 2.8%, 0% and 0%.
Turning to `CC(=O)NCC1CCN(Cc2cc(Oc3ccc(N4CCN(CCOC(N)=O)CC4)nc3)nc(-c3cc(Cl)cc(Cl)c3)c2)CC1` [Example 31, 2-(4-(5-((4-((4-(acetamidomethyl)piperidin-1-yl)methyl)-6-(3,5-dichlorophenyl)pyridin-2-yl)oxy)pyridin-2-yl)piperazin-1-yl)ethylcarbamate], the inhibition at 1 µM came out at 61.4% with Marburg virus (MARV), 18.7% in experiment [1] and 38.9% in the experiment on dengue virus (DENV).
Consider `CNC(=O)OCC1CCN(Cc2cc(Oc3cnc(N4CCN(C(C)CCC(=O)O)CC4)nc3)nc(-c3cc(Cl)cc(Cl)c3)c2)CC1` (stereo not drawn) [Example 208, 4-(4-(5-((6-(3,5-dichlorophenyl)-4-((4-(((methylcarbamoyl)oxy)methyl)piperidin-1-yl)methyl)pyridin-2-yl)oxy)pyrimidin-2-yl)piperazin-1-yl)pentanoic acid], for which the values for the inhibition at 1 µM (in the experiment on Marburg virus (MARV); in experiment [1]; in the experiment on dengue virus (DENV)) were 55.2%, 46.3% and 68.6%, respectively.
The like results for `CC(=O)NCC1CCN(Cc2cc(Oc3ccc(N)cn3)cc(-c3cc(Cl)cc(Cl)c3)c2)CC1` [Example 45, N-((1-((5-((5-aminopyridin-2-yl)oxy)-3′,5′-dichloro-[1,1′-biphenyl]-3-yl)methyl)piperidin-4-yl)methyl)acetamide] were, in that order, 18.4%, 0% and 0%.
The like results for `CC(=O)NCC1(O)CCN(Cc2cc(Oc3ccc(N4CCNCC4)nc3)nc(-c3cc(Cl)cc(Cl)c3)c2)CC1` [Example 2, N-((1-((2-(3,5-dichlorophenyl)-6-((6-(piperazin-1-yl)pyridin-3-yl)oxy)pyridin-4-yl)methyl)-4-hydroxy-piperidin-4-yl)methyl)acetamide] were, in that order, 60.4%, 33.8% and 34.3%.
Regarding `CC(=O)NCC1CCN(Cc2cc(Oc3ccc(N4CCN(CCCC(=O)O)CC4)nc3)nc(-c3cc(Cl)cc(Cl)c3)c2)CC1` [Example 249, 4-(4-(5-((4-((4-(acetamidomethyl)piperidin-1-yl)methyl)-6-(3,5-dichlorophenyl)pyridin-2-yl)oxy)pyridin-2-yl)piperazin-1-yl)butanoic acid], the inhibition at 1 µM is 51.4% in the experiment with Marburg virus (MARV), 32.5% in experiment [1] and 48.6% in the experiment on dengue virus (DENV).
Regarding `CC(CCO)N1CCN(c2ncc(Oc3cc(CN4CCC(CC(=O)O)CC4)cc(-c4cc(Cl)cc(Cl)c4)n3)cn2)CC1` (stereo not drawn) [Example 238, 2-(1-((2-(3,5-dichlorophenyl)-6-((2-(4-(4-hydroxybutan-2-yl)piperazin-1-yl)pyrimidin-5-yl)oxy)pyridin-4-yl)methyl)piperidin-4-yl)acetic acid], the inhibition at 1 µM with Marburg virus (MARV) turned out to be 56.8%; in experiment [1], 35.8%; with dengue virus (DENV), 66.1%.

The values are drawn from patent publication US20230011571A1, “SMALL MOLECULE FURIN INHIBITORS FOR TREATING INFECTIOUS DISEASES” (BP Asset V, Inc., priority 2019, published 2023).
